From patent US7473790B2 (Pfizer Inc., priority 2003, dated 2009)
pIC50: −log10 of the molar value.

Target: T1, HCV polymerase (Hepatitis C virus genotype 1b, UniProt P26663)
T1 construct: 2.5 pmoles (0.15 μg) HCV polymerase protein in a final volume of 75 μL
Assay: HCV polymerase primer/template-directed transcription assay (32P-GTP incorporation, filter binding)
Assay type: biochemical
Details: recombinant HCV polymerase; 30 minutes at 30° C.; concentration giving 50% inhibition of polymerase-directed transcription; read-out: IC50
Procedure, shortened: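 IC50s come from triplicate cpm, refit with an enzyme-concentration (30 nM) correction when under 200 nM. Reactions ran 30 min at 30° C in Tris pH 7.2 with MgCl2, 1 μM GTP spiked with α-32P-GTP, biotin-dG12 primer and poly(rC)300 template, with 1% DMSO. Incorporated label was collected on DE filtermats and counted.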

T1 sequence (P26663 2420-3010): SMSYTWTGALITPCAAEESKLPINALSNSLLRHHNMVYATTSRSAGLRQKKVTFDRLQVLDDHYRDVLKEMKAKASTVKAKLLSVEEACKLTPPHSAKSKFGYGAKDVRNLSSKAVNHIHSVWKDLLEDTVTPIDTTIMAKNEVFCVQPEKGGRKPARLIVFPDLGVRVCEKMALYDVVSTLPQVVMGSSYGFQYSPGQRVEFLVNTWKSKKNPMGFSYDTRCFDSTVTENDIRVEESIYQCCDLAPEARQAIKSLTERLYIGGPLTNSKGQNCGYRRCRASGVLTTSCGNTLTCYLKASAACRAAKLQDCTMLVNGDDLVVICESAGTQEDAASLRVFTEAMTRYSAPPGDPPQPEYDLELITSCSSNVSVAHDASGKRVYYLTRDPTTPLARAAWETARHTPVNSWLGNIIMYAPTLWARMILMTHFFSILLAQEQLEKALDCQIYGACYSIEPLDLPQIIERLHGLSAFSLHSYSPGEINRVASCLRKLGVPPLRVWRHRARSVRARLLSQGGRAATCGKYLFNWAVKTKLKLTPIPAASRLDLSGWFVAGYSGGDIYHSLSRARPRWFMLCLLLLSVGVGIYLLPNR

Row | Compound | pIC50
1 | COc1ccc(CCC2(C3CCCC3)CC(O)=C(Sc3nncn3C(C)C)C(=O)O2)cc1Cl (centres unmarked) [C(36), 6-[2-(3-chloro-4-methoxyphenyl)ethyl]-6-cyclopentyl-4-hydroxy-3-[(4-isopropyl-4H-1,2,4-triazol-3-yl)thio]-5,6-dihydro-2H-pyran-2-one] | 7.10
2 | COc1ccc(CCC2(C3CCCC3)CC(O)=C(Sc3nc4cccnc4s3)C(=O)O2)cc1Cl (centres unmarked) [C(47), 6-[2-(3-chloro-4-methoxyphenyl)ethyl]-6-cyclopentyl-4-hydroxy-3-([1,3]thiazolo[5,4-b]pyridin-2-ylthio)-5,6-dihydro-2H-pyran-2-one] | 6.62
3 | COCc1cc(CCC2(C3CCCC3)CC(O)=C(Cc3nc4nc(C)cc(C)n4n3)C(=O)O2)ccc1O (centres unmarked) [A(192), 6-Cyclopentyl-3-(5,7-dimethyl-[1,2,4]triazolo[1,5-a]pyrimidin-2-ylmethyl)-4-hydroxy-6-[2-(4-hydroxy-3-methoxymethyl-phenyl)-ethyl]-5,6-dihydro-pyran-2-one] | 7.55
4 | CCOC(=O)c1cnc2nc(SC3=C(O)CC(CCc4ccc(OC)c(Cl)c4)(C4CCCC4)OC3=O)nn2c1 (centres unmarked) [C(94), ethyl 2-({6-[2-(3-chloro-4-methoxyphenyl)ethyl]-6-cyclopentyl-4-hydroxy-2-oxo-5,6-dihydro-2H-pyran-3-yl}thio)[1,2,4]triazolo[1,5-a]pyrimidine-6-carboxylate] | 7.06
5 | O=C1CC(=O)OC(CCc2ccc(CCO)c(F)c2)(C2CCCC2)C1 (centres unmarked) [A(120)] | 4.89
6 | O=C1CC(=O)OC(CCc2ccc(-c3cc4ccccc4s3)c(F)c2)(C2CCCC2)C1 (centres unmarked) [A(10), 6-[2-(4-Benzo[b]thiophen-2-yl-3-fluoro-phenyl)-ethyl]-6-cyclopentyl-dihydro-pyran-2,4-dione] | 5.09
7 | CN(C)C(=O)c1ccc(CCC2(C3CCCC3)CC(=O)CC(=O)O2)cc1F (centres unmarked) [A(16), 4-[2-(2-Cyclopentyl-4,6-dioxo-tetrahydro-pyran-2-yl)-ethyl]-2-fluoro-N,N-dimethyl-benzamide] | 4.84
8 | CCc1cc(CCC2(C3CCCC3)CC(=O)CC(=O)O2)ccc1O (centres unmarked) [A(22), 6-Cyclopentyl-6-[2-(3-ethyl-4-hydroxy-phenyl)-ethyl]-dihydro-pyran-2,4-dione] | 6.52
9 | CC(C)(C#N)c1ccc(CCC2(C3CCCC3)CC(O)=C(Cc3nc4ncc(Cl)cn4n3)C(=O)O2)cc1Cl (centres unmarked) [A(198), 2-(2-Chloro-4-{2-[5-(6-chloro-[1,2,4]triazolo[1,5-a]pyrimidin-2-ylmethyl)-2-cyclopentyl-4-hydroxy-6-oxo-3,6-dihydro-2H-pyran-2-yl]-ethyl}-phenyl)-2-methyl-propionitrile] | 7.80
10 | COCc1cc(CCC2(C3CCCC3)CC(=O)CC(=O)O2)ccc1O (centres unmarked) [A(194), 6-Cyclopentyl-6-[2-(4-hydroxy-3-methoxymethyl-phenyl)-ethyl]-dihydro-pyran-2,4-dione] | 5.16
11 | COc1ccc(CCC2(C3CCCC3)CC(=O)C(Cc3cn4cccnc4n3)C(=O)O2)cc1Cl (centres unmarked) [B(83), 6-[2-(3-chloro-4-methoxyphenyl)ethyl]-6-cyclopentyl-3-(imidazo[1,2-a]pyrimidin-2-ylmethyl)dihydro-2H-pyran-2,4(3H)-dione] | 6.44
12 | COC(=O)C(C)(C)Oc1ccc(CCC2(C3CCCC3)CC(=O)CC(=O)O2)cc1F (centres unmarked) [A(55), 2-{4-[2-(2-Cyclopentyl-4,6-dioxo-tetrahydro-pyran-2-yl)-ethyl]-2-fluoro-phenoxy}-2-methyl-propionic acid methyl ester] | 4.95
13 | CCc1ccc(O)c(CCC2(C3CCCC3)CC(O)=C(Cc3nc4nc(C)cc(C)n4n3)C(=O)O2)c1 (single isomer, unassigned; enantiomer 1) [A(167), Enantiomer 1 of 6-Cyclopentyl-3-(5,7-dimethyl-[1,2,4]triazolo[1,5-a]pyrimidin-2-ylmethyl)-6-[2-(5-ethyl-2-hydroxy-phenyl)-ethyl]-4-hydroxy-5,6-dihydro-pyran-2-one] | 8.40
14 | CCOc1ccc(CCC2(C3CCCC3)CC(=O)CC(=O)O2)cc1C (centres unmarked) [A(03), 6-Cyclopentyl-6-[2-(4-ethoxy-3-methyl-phenyl)-ethyl]-dihydro-pyran-2,4-dione] | 5.37
15 | O=C1OC(CCC2CCCC2)(C2CCCC2)CC(O)=C1Sc1nnc(-c2ccncc2)[nH]1 (centres unmarked) [C(28), 6-Cyclopentyl-6-(2-cyclopentyl-ethyl)-4-hydroxy-3-(5-pyridin-4-yl-4H-[1,2,4]triazol-3-ylsulfanyl)-5,6-dihydro-pyran-2-one] | 5.10
16 | CC(C)Oc1ccc(CCC2(C3CCCC3)CC(O)=C(Cc3nc4ccccc4n3C)C(=O)O2)cc1F (centres unmarked) [B(16), 6-Cyclopentyl-6-[2-(3-fluoro-4-isopropoxy-phenyl)-ethyl]-4-hydroxy-3-(1-methyl-1H-benzoimidazol-2-ylmethyl)-5,6-dihydro-pyran-2-one] | 6.05

Row | Compound | pIC50
17 | CCc1cc(CCC2(C3CCCC3)CC(O)=C(Cc3nc4ncccn4n3)C(=O)O2)c(OC)cc1O (centres unmarked) [A(207), 6-cyclopentyl-6-[2-(5-ethyl-4-hydroxy-2-methoxyphenyl)ethyl]-4-hydroxy-3-([1,2,4]triazolo[1,5-a]pyrimidin-2-ylmethyl)-5,6-dihydro-2H-pyran-2-one] | 8.40
18 | CC(C)Oc1ccc(CCC2(C3CCCC3)CC(O)=C(Sc3nc4cc(Cl)ccc4n3C(C)C)C(=O)O2)cc1F (centres unmarked) [C(02)] | 7.85
19 | CC(C)Oc1ccc(CCC2(C3CCCC3)CC(O)=C(Sc3ccc(O)cc3)C(=O)O2)cc1F (centres unmarked) [C(08), 6-Cyclopentyl-6-[2-(3-fluoro-4-isopropoxy-phenyl)-ethyl]-4-hydroxy-3-(4-hydroxy-phenylsulfanyl)-5,6-dihydro-pyran-2-one] | 6.51
20 | COc1ccc(CCC2(C3CCCC3)CC(=O)C(Cc3ccccn3)C(=O)O2)cc1Cl (centres unmarked) [B(81), 6-[2-(3-chloro-4-methoxyphenyl)ethyl]-6-cyclopentyl-3-(pyridin-2-ylmethyl)dihydro-2H-pyran-2,4(3H)-dione] | ~6.62
21 | Cc1cc(C)n2nc(CC3=C(O)CC(CCc4ccc(F)c(Cl)c4)(C4CCCC4)OC3=O)nc2n1 (centres unmarked) [B(19), 6-[2-(3-Chloro-4-fluoro-phenyl)-ethyl]-6-cyclopentyl-3-(5,7-dimethyl-[1,2,4]triazolo[1,5]pyrimidin-2-ylmethyl)-4-hydroxy-5,6-dihydro-pyran-2-one] | 7.22
22 | Cc1cc(C)n2nc(CC3=C(O)CC(CCc4ccc(-c5c(C)noc5C)cc4)(C4CCCC4)OC3=O)nc2n1 (centres unmarked) [B(04), 6-Cyclopentyl-6-{2-[4-(3,5-dimethyl-isoxazol-4-yl)-phenyl]-ethyl}-3-(5,7-dimethyl-[1,2,4]triazolo[1,5-a]pyrimidin-2-ylmethyl)-4-hydroxy-5,6-dihydro-pyran-2-one] | 7.62
23 | COc1ccc(CCC2(C3CCCC3)CC(O)=C(Sc3nncn3-c3ccccc3)C(=O)O2)cc1Cl (centres unmarked) [C(37), 6-[2-(3-chloro-4-methoxyphenyl)ethyl]-6-cyclopentyl-4-hydroxy-3-[(4-phenyl-4H-1,2,4-triazol-3-yl)thio]-5,6-dihydro-2H-pyran-2-one] | 6.89
24 | CCn1cnnc1SC1=C(O)CC(CCc2ccc(OC)c(Cl)c2)(C2CCCC2)OC1=O (centres unmarked) [C(35), 6-[2-(3-chloro-4-methoxyphenyl)ethyl]-6-cyclopentyl-3-[(4-ethyl-4H-1,2,4-triazol-3-yl)thio]-4-hydroxy-5,6-dihydro-2H-pyran-2-one] | 7.15
25 | COc1ccc(CCC2(C3CCCC3)CC(O)=C(Sc3nc4cc(Cl)c(F)cc4[nH]3)C(=O)O2)cc1Cl (centres unmarked) [C(61), 3-[(5-chloro-6-fluoro-1H-benzimidazol-2-yl)thio]-6-[2-(3-chloro-4-methoxyphenyl)ethyl]-6-cyclopentyl-4-hydroxy-5,6-dihydro-2H-pyran-2-one] | 6.85
26 | CC(C)Oc1ccc(CCC2(C3CCCC3)CC(=O)CC(=O)O2)cc1F (single isomer, unassigned) [J(1), 6-cyclopentyl-6-[2-(3-fluoro-4-isopropoxyphenyl)ethyl]dihydro-2H-pyran-2,4(3H)-dione] | 5.36
27 | COc1ccc(CCC2(C3CCCC3)CC(O)=C(Cc3nc4nc(C)cc(C)n4n3)C(=O)O2)c(F)c1 (centres unmarked) [B(103), 6-Cyclopentyl-3-(5,7-dimethyl-[1,2,4]triazolo[1,5-a]pyrimidin-2-ylmethyl)-6-[2-(2-fluoro-4-methoxy-phenyl)-ethyl]-4-hydroxy-5,6-dihydro-pyran-2-one] | 6.97
28 | O=C1CC(=O)OC(CCC2CCCCC2)(C2CCCC2)C1 (centres unmarked) [A(44), 6-(2-Cyclohexyl-ethyl)-6-cyclopentyl-dihydro-pyran-2,4-dione] | 4.17
29 | COc1ccc(CCC2(C3CCCC3)CC(O)=C(Sc3nc4ncc(C)cn4n3)C(=O)O2)cc1Cl (centres unmarked) [C(98), 6-[2-(3-chloro-4-methoxyphenyl)ethyl]-6-cyclopentyl-4-hydroxy-3-[(6-methyl[1,2,4]triazolo[1,5-a]pyrimidin-2-yl)thio]-5,6-dihydro-2H-pyran-2-one] | 7.17
30 | CCc1cc(CCC2(C3CCCC3)CC(=O)CC(=O)O2)ccc1OCCOC (centres unmarked) [A(184), 6-Cyclopentyl-6-{2-[3-ethyl-4-(2-methoxy-ethoxy)-phenyl]-ethyl}-dihydro-pyran-2,4-dione] | 6.28
31 | COC(=O)C(C)(C)c1ccc(CCC2(C3CCCC3)CC(O)=C(Cc3nc4ncc(C)cn4n3)C(=O)O2)cc1F (centres unmarked) [A(270), 2-(4-{2-[2-Cyclopentyl-4-hydroxy-5-(6-methyl-[1,2,4]triazolo[1,5-a]pyrimidin-2-ylmethyl)-6-oxo-3,6-dihydro-2H-pyran-2-yl]-ethyl}-2-fluoro-phenyl)-2-methyl-propionic acid methyl ester] | 7.43
32 | Cc1csc2nc(CC3=C(O)CC(CCc4ccc(C(F)F)c(F)c4)(C4CCCC4)OC3=O)cc(=O)n12 (centres unmarked) [B(89), 7-[(6-Cyclopentyl-6-{2-[4-(difluoromethyl)-3-fluorophenyl]ethyl}-4-hydroxy-2-oxo-5,6-dihydro-2H-pyran-3-yl)methyl]-3-methyl-5H-[1,3]thiazolo[3,2-a]pyrimidin-5-one] | 6.73
